From ChEMBL document CHEMBL3045590, “Design, synthesis, bioactivity, and structure-activity relationship (SAR) studies of novel benzoylphenylureas containing oxime ether group” (2008)
≈ marks a conversion by molar mass, not a printed value.

Experiments:
Type in all cases: functional
[1] = system: Mythimna separata; experiment: Larvicidal activity against fourth-instar larval stage of Mythimna separata (Oriental armyworm) in compound-pretreated corn leaves assessed as mortality at 50 mg/l at 25 +/-1 degC after 4 days
[2] = system: Mythimna separata; experiment: Larvicidal activity against fourth-instar larval stage of Mythimna separata (Oriental armyworm) in compound-pretreated corn leaves assessed as mortality at 10 mg/l at 25 +/-1 degC after 4 days
[3] = system: Mythimna separata; experiment: Larvicidal activity against fourth-instar larval stage of Mythimna separata (Oriental armyworm) in compound-pretreated corn leaves assessed as mortality at 25 mg/l at 25 +/-1 degC after 4 days
[4] = system: Culex pipiens pallens; experiment: Larvicidal activity against fourth-instar larval stage of Culex pipiens pallens (mosquito) assessed as mortality at 1 mg/l at 25 +/-1 degC after 8 days; conditions: 192 h
[5] = system: Culex pipiens pallens; experiment: Larvicidal activity against fourth-instar larval stage of Culex pipiens pallens (mosquito) assessed as mortality at 0.1 mg/l at 25 +/-1 degC after 8 days; conditions: 192 h
[6] = system: Mythimna separata; experiment: Larvicidal activity against fourth-instar larval stage of Mythimna separata (Oriental armyworm) in compound-pretreated corn leaves assessed as mortality at 200 mg/l at 25 +/-1 degC after 4 days
[7] = system: Culex pipiens pallens; experiment: Larvicidal activity against fourth-instar larval stage of Culex pipiens pallens (mosquito) assessed as mortality at 0.5 mg/l at 25 +/-1 degC after 8 days; conditions: 192 h
[8] = system: Mythimna separata; experiment: Larvicidal activity against fourth-instar larval stage of Mythimna separata (Oriental armyworm) in compound-pretreated corn leaves assessed as mortality at 100 mg/l at 25 +/-1 degC after 4 days
[9] = system: Culex pipiens pallens; experiment: Larvicidal activity against fourth-instar larval stage of Culex pipiens pallens (mosquito) assessed as mortality at 0.25 mg/l at 25 +/-1 degC after 8 days; conditions: 192 h
[10] = system: Culex pipiens pallens; experiment: Larvicidal activity against fourth-instar larval stage of Culex pipiens pallens (mosquito) assessed as mortality at 2 mg/l at 25 +/-1 degC after 8 days; conditions: 192 h
[11] = system: Culex pipiens pallens; experiment: Ratio of larvicidal activity of compound to larvicidal activity of Flucycloxuron for fourth-instar larval stage of Culex pipiens pallens (mosquito) measured after 8 days
[12] = system: Mythimna separata; experiment: Larvicidal activity against fourth-instar larval stage of Mythimna separata (Oriental armyworm) in compound-pretreated corn leaves assessed as mortality at 0.25 mg/l at 25 +/-1 degC after 4 days
[13] = system: Culex pipiens pallens; experiment: Larvicidal activity against fourth-instar larval stage of Culex pipiens pallens (mosquito) assessed as mortality at 0.005 mg/l at 25 +/-1 degC after 8 days; conditions: 192 h
[14] = system: Culex pipiens pallens; experiment: Larvicidal activity against fourth-instar larval stage of Culex pipiens pallens (mosquito) assessed as mortality at 0.05 mg/l at 25 +/-1 degC after 8 days; conditions: 192 h
[15] = system: Culex pipiens pallens; experiment: Larvicidal activity against fourth-instar larval stage of Culex pipiens pallens (mosquito) assessed as mortality at 0.0005 mg/l at 25 +/-1 degC after 8 days; conditions: 192 h
[16] = system: Mythimna separata; experiment: Larvicidal activity against fourth-instar larval stage of Mythimna separata (Oriental armyworm) in compound-pretreated corn leaves assessed as mortality at 5 mg/l at 25 +/-1 degC after 4 days
[17] = system: Culex pipiens pallens; experiment: Larvicidal activity against fourth-instar larval stage of Culex pipiens pallens (mosquito) assessed as mortality at 0.025 mg/l at 25 +/-1 degC after 8 days; conditions: 192 h
[18] = system: Mythimna separata; experiment: Ratio of Flucycloxuron LC50 to compound LC50 for fourth-instar larval stage of Mythimna separata (Oriental armyworm) measured after 4 days
[19] = system: Culex pipiens pallens; experiment: Larvicidal activity against fourth-instar larval stage of Culex pipiens pallens (mosquito) assessed as mortality at 0.001 mg/l at 25 +/-1 degC after 8 days; conditions: 192 h
[20] = system: Mythimna separata; experiment: Larvicidal activity against fourth-instar larval stage of Mythimna separata (Oriental armyworm) in compound-pretreated corn leaves assessed as mortality at 1 mg/l at 25 +/-1 degC after 4 days
[21] = system: Culex pipiens pallens; experiment: Larvicidal activity against fourth-instar larval stage of Culex pipiens pallens (mosquito) assessed as mortality at 0.0025 mg/l at 25 +/-1 degC after 8 days; conditions: 192 h
[22] = system: Mythimna separata; experiment: Larvicidal activity against fourth-instar larval stage of Mythimna separata (Oriental armyworm) in compound-pretreated corn leaves assessed as mortality at 2.5 mg/l at 25 +/-1 degC after 4 days
[23] = system: Culex pipiens pallens; experiment: Larvicidal activity against fourth-instar larval stage of Culex pipiens pallens (mosquito) assessed as mortality at 0.01 mg/l at 25 +/-1 degC after 8 days; conditions: 192 h
[24] = system: Mythimna separata; experiment: Larvicidal activity against fourth-instar larval stage of Mythimna separata (Oriental armyworm) in compound-pretreated corn leaves assessed as mortality at 0.5 mg/l at 25 +/-1 degC after 4 days
[25] = system: Mythimna separata; experiment: Larvicidal activity against fourth-instar larval stage of Mythimna separata (Oriental armyworm) in compound-pretreated corn leaves assessed as mortality at 0.125 mg/l at 25 +/-1 degC after 4 days
[26] = system: Culex pipiens pallens; experiment: Larvicidal activity against fourth-instar larval stage of Culex pipiens pallens (mosquito) assessed as mortality at 0.00025 mg/l at 25 +/-1 degC after 8 days; conditions: 192 h
[27] = system: Mythimna separata; experiment: Ratio of Hexaflumuron LC50 to compound LC50 for fourth-instar larval stage of Mythimna separata (Oriental armyworm) measured after 4 days
[28] = system: Cucumis sativus; experiment: Growth regulation of Cucumis sativus (cucumber) seeds assessed as stimulation of radicle growth at 10 mg/l at 26 degC after 5 days
[29] = system: Mythimna separata; experiment: Larvicidal activity against fourth-instar larval stage of Mythimna separata (Oriental armyworm) in compound-pretreated corn leaves assessed as mortality at 25 +/-1 degC after 4 days

Compound: O=C(NC(=O)c1c(F)cccc1F)Nc1ccc(/C=N/OCC2CCCC2)cc1
- mortality at 50 µg/mL [1]: 10%
- mortality at 10 µg/mL [2]: 0%
- mortality at 25 µg/mL [3]: 10%
- mortality at 1 µg/mL [4]: 100%
- mortality at 0.1 µg/mL [5]: 10%
- mortality at 200 µg/mL [6]: 80%
- mortality at 0.5 µg/mL [7]: 10%
- mortality at 100 µg/mL [8]: 40%
- mortality at 0.25 µg/mL [9]: 10%
- mortality at 2 µg/mL [10]: 100%

Compound: CC(C)(C)O/N=C/c1ccc(NC(=O)NC(=O)c2c(F)cccc2F)cc1
- RatioLC50 [11]: 10
- mortality at 0.25 µg/mL [12]: 0%
- mortality at 0.005 µg/mL [13]: 100%
- mortality at 0.05 µg/mL [14]: 100%
- mortality at 10 µg/mL [2]: 100%
- mortality at 0.0005 µg/mL [15]: 20%
- mortality at 25 µg/mL [3]: 100%
- mortality at 5 µg/mL [16]: 100%
- mortality at 0.025 µg/mL [17]: 100%
- mortality at 0.1 µg/mL [5]: 100%
- RatioLC50 [18]: 5
- mortality at 0.001 µg/mL [19]: 70%
- mortality at 1 µg/mL [20]: 100%
- mortality at 0.0025 µg/mL [21]: 90%
- mortality at 2.5 µg/mL [22]: 100%
- mortality at 0.01 µg/mL [23]: 100%
- mortality at 0.5 µg/mL [24]: 85%

Compound: O=C(NC(=O)c1c(F)cccc1F)Nc1ccc(/C=N/O)cc1
- mortality at 1 µg/mL [4]: 100%
- mortality at 0.1 µg/mL [5]: 10%
- mortality at 200 µg/mL [6]: 80%
- mortality at 0.5 µg/mL [7]: 60%
- mortality at 0.25 µg/mL [9]: 40%
- mortality at 2 µg/mL [10]: 100%

Compound: CC1CCC(C(C)C)C(O/N=C/c2ccc(NC(=O)NC(=O)c3c(F)cccc3F)cc2)C1 (centres undefined)
- RatioLC50 [11]: 10
- mortality at 0.25 µg/mL [12]: 10%
- mortality at 0.005 µg/mL [13]: 100%
- mortality at 10 µg/mL [2]: 100%
- mortality at 0.0005 µg/mL [15]: 10%
- mortality at 0.125 µg/mL [25]: 0%
- mortality at 25 µg/mL [3]: 100%
- mortality at 5 µg/mL [16]: 100%
- mortality at 0.001 µg/mL [19]: 80%
- mortality at 1 µg/mL [20]: 80%
- mortality at 0.0025 µg/mL [21]: 100%
- mortality at 2.5 µg/mL [22]: 100%
- mortality at 0.01 µg/mL [23]: 100%
- mortality at 0.5 µg/mL [24]: 40%

Compound: O=Cc1ccc(NC(=O)NC(=O)c2c(F)cccc2F)cc1
- mortality at 1 µg/mL [4]: 80%
- mortality at 200 µg/mL [6]: 0%
- mortality at 0.5 µg/mL [7]: 0%
- mortality at 100 µg/mL [8]: 0%
- mortality at 2 µg/mL [10]: 100%

Compound: O=C(NC(=O)c1c(F)cccc1F)Nc1ccc(/C=N/OCC(F)(F)F)cc1
- RatioLC50 [11]: 10
- mortality at 0.25 µg/mL [12]: 0%
- mortality at 0.005 µg/mL [13]: 100%
- mortality at 0.05 µg/mL [14]: 100%
- mortality at 10 µg/mL [2]: 100%
- mortality at 25 µg/mL [3]: 100%
- mortality at 5 µg/mL [16]: 100%
- mortality at 0.025 µg/mL [17]: 100%
- mortality at 0.1 µg/mL [5]: 100%
- mortality at 0.001 µg/mL [19]: 10%
- mortality at 1 µg/mL [20]: 90%
- mortality at 0.0025 µg/mL [21]: 70%
- mortality at 2.5 µg/mL [22]: 100%
- mortality at 0.01 µg/mL [23]: 100%
- mortality at 0.5 µg/mL [24]: 60%

Compound: O=C(NC(=O)c1c(F)cccc1F)Nc1ccc(/C=N/OC(C(F)(F)F)C(F)(F)F)cc1
- RatioLC50 [11]: 10
- mortality at 0.25 µg/mL [12]: 0%
- mortality at 0.005 µg/mL [13]: 100%
- mortality at 0.05 µg/mL [14]: 100%
- mortality at 10 µg/mL [2]: 100%
- mortality at 0.0005 µg/mL [15]: 60%
- mortality at 25 µg/mL [3]: 100%
- mortality at 5 µg/mL [16]: 100%
- mortality at 0.025 µg/mL [17]: 100%
- mortality at 0.1 µg/mL [5]: 100%
- mortality at 0.001 µg/mL [19]: 90%
- mortality at 1 µg/mL [20]: 90%
- mortality at 0.0025 µg/mL [21]: 100%
- mortality at 2.5 µg/mL [22]: 100%
- mortality at 0.00025 µg/mL [26]: 30%
- mortality at 0.01 µg/mL [23]: 100%
- mortality at 0.5 µg/mL [24]: 40%

Compound: C[Si](C)(C)O/N=C/c1ccc(NC(=O)NC(=O)c2c(F)cccc2F)cc1
- mortality at 50 µg/mL [1]: 0%
- mortality at 1 µg/mL [4]: 100%
- mortality at 200 µg/mL [6]: 100%
- mortality at 0.5 µg/mL [7]: 100%
- mortality at 100 µg/mL [8]: 60%
- mortality at 0.25 µg/mL [9]: 0%
- mortality at 2 µg/mL [10]: 100%

Compound: CC(C)O/N=C/c1ccc(NC(=O)NC(=O)c2c(F)cccc2F)cc1
- RatioLC50 [27]: 9.4
- mortality at 0.25 µg/mL [12]: 0%
- mortality at 0.005 µg/mL [13]: 75%
- mortality at 0.05 µg/mL [14]: 100%
- Activity [28]: 55%
- mortality at 1 µg/mL [4]: 100%
- mortality at 0.025 µg/mL [17]: 100%
- mortality at 0.1 µg/mL [5]: 100%
- RatioLC50 [18]: 5
- mortality at 0.001 µg/mL [19]: 0%
- mortality at 1 µg/mL [20]: 100%
- mortality at 0.5 µg/mL [7]: 100%
- mortality at 0.0025 µg/mL [21]: 15%
- mortality at 2.5 µg/mL [22]: 100%
- mortality at 0.25 µg/mL [9]: 100%
- mortality at 0.01 µg/mL [23]: 100%
- LC50 [29]: 0.5 µg/mL (≈ 1.38 µM)
- mortality at 0.5 µg/mL [24]: 50%
